Assay results from ChEMBL document CHEMBL1153480, “Study on the potential anti-cancer activity of phosphonium and ammonium-based ionic liquids” (2009).

What was measured:
Format in all cases: functional
[1] = cells; conditions: Homo sapiens, Hs-578T
Description: Growth inhibition of human Hs 578T cells assessed as cell growth at 10 uM by SRB assay

[2] = test system: NCI-H23; test: cells; conditions: Homo sapiens
Description: Growth inhibition of human NCI-H23 cells assessed as drug level required for 50% reduction in net protein increase by SRB assay relative to control

[3] = test system: MOLT-4; test: Cytotoxicity against human MOLT4 cells by SRB assay; conditions: read-out: LC50 (the source's name)
[4] = test system: SF-295; test: cells; conditions: Homo sapiens
Description: Growth inhibition of human SF295 cells assessed as drug level required for 50% reduction in net protein increase by SRB assay relative to control

[5] = test system: IGROV-1; test: cells; conditions: Homo sapiens
Description: Growth inhibition of human IGROV1 cells assessed as drug level required for 50% reduction in net protein increase by SRB assay relative to control

[6] = test system: NCI/ADR-RES; test: cells; conditions: Homo sapiens
Description: Growth inhibition of human NCI/ADR-RES cells assessed as cell growth at 10 uM by SRB assay

[7] = test system: TK-10; test: cells; conditions: Homo sapiens
Description: Growth inhibition of human TK10 cells assessed as cell growth at 10 uM by SRB assay

[8] = test system: MDA-MB-435; test: cells; conditions: Homo sapiens
Description: Growth inhibition of human MDA-MB-435 cells assessed as cell growth at 10 uM by SRB assay

[9] = test system: NCI-H522; test: Cytotoxicity against human NCI-H522 cells by SRB assay; conditions: read-out: LC50 (the source's name)
[10] = test system: HOP-62; test: Cytotoxicity against human HOP62 cells by SRB assay; conditions: read-out: LC50 (the source's name)
[11] = test system: NCI-H322M; test: cells; conditions: Homo sapiens
Description: Growth inhibition of human NCI-H322M cells assessed as drug level required for 50% reduction in net protein increase by SRB assay relative to control

[12] = test system: OVCAR-8; test: cells; conditions: Homo sapiens
Description: Growth inhibition of human OVCAR8 cells assessed as drug level required for 50% reduction in net protein increase by SRB assay relative to control

[13] = test system: SF-268; test: cells; conditions: Homo sapiens
Description: Growth inhibition of human SF268 cells assessed as cell growth at 10 uM by SRB assay

[14] = test system: Malme-3M; test: cells; conditions: Homo sapiens
Description: Growth inhibition of human MALME-3M cells assessed as cell growth at 10 uM by SRB assay

[15] = test system: OVCAR-5; test: cells; conditions: Homo sapiens
Description: Growth inhibition of human OVCAR5 cells assessed as drug level required for 50% reduction in net protein increase by SRB assay relative to control

[16] = test system: MDA-MB-435; test: Cytotoxicity against human MDA-MB-435 cells by SRB assay; conditions: read-out: LC50 (the source's name)
[17] = test system: SNB-75; test: cells; conditions: Homo sapiens
Description: Growth inhibition of human SNB75 cells assessed as cell growth at 10 uM by SRB assay

[18] = test system: SK-MEL-2; test: cells; conditions: Homo sapiens
Description: Growth inhibition of human SK-MEL-2 cells assessed as drug level required for 50% reduction in net protein increase by SRB assay relative to control

[19] = test system: NCI-H522; test: cells; conditions: Homo sapiens
Description: Growth inhibition of human NCI-H522 cells assessed as cell growth at 10 uM by SRB assay

[20] = cells; conditions: Homo sapiens, CAKI
Description: Growth inhibition of human CAKI cells assessed as drug level required for 50% reduction in net protein increase by SRB assay relative to control

[21] = test system: MDA-MB-468; test: cells; conditions: Homo sapiens
Description: Growth inhibition of human MDA-MB-468 cells assessed as drug level required for 50% reduction in net protein increase by SRB assay relative to control

[22] = test system: SF-295; test: cells; conditions: Homo sapiens; remark: listed apart in the source
Description: Growth inhibition of human SF295 cells assessed as cell growth at 10 uM by SRB assay

[23] = test system: OVCAR-3; test: cells; conditions: Homo sapiens
Description: Growth inhibition of human OVCAR-3 cells assessed as cell growth at 10 uM by SRB assay

[24] = test system: NCI-H226; test: cells; conditions: Homo sapiens
Description: Growth inhibition of human NCI-H226 cells assessed as drug level required for 50% reduction in net protein increase by SRB assay relative to control

[25] = test system: SK-MEL-28; test: cells; conditions: Homo sapiens
Description: Growth inhibition of human SK-MEL-28 cells assessed as cell growth at 10 uM by SRB assay

[26] = test system: OVCAR-8; test: cells; conditions: Homo sapiens; remark: listed apart in the source
Description: Growth inhibition of human OVCAR8 cells assessed as cell growth at 10 uM by SRB assay

[27] = test system: RXF 393; test: cells; conditions: Homo sapiens
Description: Growth inhibition of human RFX393 cells assessed as cell growth at 10 uM by SRB assay

[28] = test system: A498; test: cells; conditions: Homo sapiens
Description: Growth inhibition of human A498 cells assessed as drug level required for 50% reduction in net protein increase by SRB assay relative to control

[29] = test system: HCT-116; test: Cytotoxicity against human HCT116 cells by SRB assay; conditions: read-out: LC50 (the source's name)
[30] = test system: SK-OV-3; test: cells; conditions: Homo sapiens
Description: Growth inhibition of human SKOV3 cells assessed as drug level required for 50% reduction in net protein increase by SRB assay relative to control

[31] = test system: PC-3; test: cells; conditions: Homo sapiens
Description: Growth inhibition of human PC3 cells assessed as drug level required for 50% reduction in net protein increase by SRB assay relative to control

[32] = test system: MCF7; test: cells; conditions: Homo sapiens
Description: Growth inhibition of human MCF7 cells assessed as drug level required for 50% reduction in net protein increase by SRB assay relative to control

[33] = test system: BT-549; test: cells; conditions: Homo sapiens
Description: Growth inhibition of human BT549 cells assessed as drug level required for 50% reduction in net protein increase by SRB assay relative to control

[34] = test system: MDA-MB-231; test: cells; conditions: Homo sapiens
Description: Growth inhibition of human MDA-MB-231 cells assessed as drug level required for 50% reduction in net protein increase by SRB assay relative to control

[35] = test system: COLO 205; test: Cytotoxicity against human COLO205 cells by SRB assay; conditions: read-out: LC50 (the source's name)
[36] = test system: OVCAR-3; test: Cytotoxicity against human OVCAR-3 cells by SRB assay; conditions: read-out: LC50 (the source's name)
[37] = test system: KM12; test: Cytotoxicity against human KM12 cells by SRB assay; conditions: read-out: LC50 (the source's name)
[38] = test system: HT-29; test: Cytotoxicity against human HT-29 cells by SRB assay; conditions: read-out: LC50 (the source's name)
[39] = test system: SF-295; test: Cytotoxicity against human SF295 cells by SRB assay; conditions: read-out: LC50 (the source's name)
[40] = test system: PC-3; test: Cytotoxicity against human PC3 cells by SRB assay; conditions: read-out: LC50 (the source's name)
[41] = test system: K562; test: cells; conditions: Homo sapiens
Description: Growth inhibition of human K562 cells assessed as cell growth at 10 uM by SRB assay

[42] = test system: KM12; test: cells; conditions: Homo sapiens
Description: Growth inhibition of human KM12 cells assessed as drug level required for 50% reduction in net protein increase by SRB assay relative to control

[43] = test system: 786-0; test: cells; conditions: Homo sapiens
Description: Growth inhibition of human 786-0 cells assessed as drug level required for 50% reduction in net protein increase by SRB assay relative to control

[44] = test system: NCI-H522; test: cells; conditions: Homo sapiens; remark: listed apart in the source
Description: Growth inhibition of human NCI-H522 cells assessed as drug level required for 50% reduction in net protein increase by SRB assay relative to control

[45] = test system: MDA-MB-435; test: cells; conditions: Homo sapiens; remark: listed apart in the source
Description: Growth inhibition of human MDA-MB-435 cells assessed as drug level required for 50% reduction in net protein increase by SRB assay relative to control

[46] = test system: HT-29; test: cells; conditions: Homo sapiens
Description: Growth inhibition of human HT-29 cells assessed as drug level required for 50% reduction in net protein increase by SRB assay relative to control

[47] = test system: UACC-257; test: cells; conditions: Homo sapiens
Description: Growth inhibition of human UACC257 cells assessed as drug level required for 50% reduction in net protein increase by SRB assay relative to control

[48] = test system: OVCAR-8; test: Cytotoxicity against human OVCAR8 cells by SRB assay; conditions: read-out: LC50 (the source's name)
[49] = test system: HCT-116; test: cells; conditions: Homo sapiens
Description: Growth inhibition of human HCT116 cells assessed as drug level required for 50% reduction in net protein increase by SRB assay relative to control

[50] = test system: RXF 393; test: cells; conditions: Homo sapiens; remark: listed apart in the source
Description: Growth inhibition of human RFX393 cells assessed as drug level required for 50% reduction in net protein increase by SRB assay relative to control

[51] = test system: SNB-19; test: cells; conditions: Homo sapiens
Description: Growth inhibition of human SNB19 cells assessed as drug level required for 50% reduction in net protein increase by SRB assay relative to control

[52] = test system: T47D; test: Cytotoxicity against human T47D cells by SRB assay; conditions: read-out: LC50 (the source's name)
[53] = test system: MOLT-4; test: cells; conditions: Homo sapiens
Description: Growth inhibition of human MOLT4 cells assessed as drug level required for 50% reduction in net protein increase by SRB assay relative to control

[54] = Cytotoxicity against human CAKI cells by SRB assay; conditions: read-out: LC50 (the source's name)
[55] = cells; conditions: Homo sapiens, CAKI; remark: listed apart in the source
Description: Growth inhibition of human CAKI cells assessed as cell growth at 10 uM by SRB assay

[56] = test system: COLO 205; test: cells; conditions: Homo sapiens
Description: Growth inhibition of human COLO205 cells assessed as cell growth at 10 uM by SRB assay

[57] = test system: SW-620; test: Cytotoxicity against human SW620 cells by SRB assay; conditions: read-out: LC50 (the source's name)
[58] = test system: ACHN; test: cells; conditions: Homo sapiens
Description: Growth inhibition of human ACHN cells assessed as drug level required for 50% reduction in net protein increase by SRB assay relative to control

[59] = test system: NCI-H226; test: cells; conditions: Homo sapiens; remark: listed apart in the source
Description: Growth inhibition of human NCI-H226 cells assessed as cell growth at 10 uM by SRB assay

[60] = test system: Malme-3M; test: cells; conditions: Homo sapiens; remark: listed apart in the source
Description: Growth inhibition of human MALME-3M cells assessed as drug level required for 50% reduction in net protein increase by SRB assay relative to control

[61] = test system: HCT-15; test: cells; conditions: Homo sapiens
Description: Growth inhibition of human HCT15 cells assessed as cell growth at 10 uM by SRB assay

[62] = test system: SN12C; test: cells; conditions: Homo sapiens
Description: Growth inhibition of human SN12C cells assessed as cell growth at 10 uM by SRB assay

[63] = test system: U-251; test: cells; conditions: Homo sapiens
Description: Growth inhibition of human U251 cells assessed as cell growth at 10 uM by SRB assay

[64] = test system: SK-MEL-28; test: Cytotoxicity against human SK-MEL-28 cells by SRB assay; conditions: read-out: LC50 (the source's name)
[65] = test system: MOLT-4; test: cells; conditions: Homo sapiens; remark: listed apart in the source
Description: Growth inhibition of human MOLT4 cells assessed as cell growth at 10 uM by SRB assay

[66] = test system: MCF7; test: Cytotoxicity against human MCF7 cells by SRB assay; conditions: read-out: LC50 (the source's name)
[67] = test system: SNB-19; test: Cytotoxicity against human SNB19 cells by SRB assay; conditions: read-out: LC50 (the source's name)
[68] = test system: NCI-H460; test: cells; conditions: Homo sapiens
Description: Growth inhibition of human NCI-H460 cells assessed as drug level required for 50% reduction in net protein increase by SRB assay relative to control

[69] = test system: M14; test: cells; conditions: Homo sapiens
Description: Growth inhibition of human M14 cells assessed as cell growth at 10 uM by SRB assay

[70] = test system: UACC-62; test: cells; conditions: Homo sapiens
Description: Growth inhibition of human UACC62 cells assessed as drug level required for 50% reduction in net protein increase by SRB assay relative to control

[71] = test system: M14; test: Cytotoxicity against human M14 cells by SRB assay; conditions: read-out: LC50 (the source's name)
[72] = test system: SR; test: Cytotoxicity against human SR cells by SRB assay; conditions: read-out: LC50 (the source's name)

CCCCCCCCCCCCCCCCCCPCCCCCCCCCCCCCC (configuration not stated) [MONO(OCTADECYL(TETRADECYL)PHOSPHONIUM) MONO(HEXAFLUOROPHOSPHATE(V)) MONO(TETRAFLUOROBORATE)]
growth at 10 µM [1]: -44.2% | GI50 [2]: 236 nM | CC50 [3]: > 100000 nM | GI50 [4]: 251 nM | GI50 [5]: 316 nM | growth at 10 µM [6]: -77.3% | growth at 10 µM [7]: -75% | growth at 10 µM [8]: -59.3% | CC50 [9]: > 100000 nM | CC50 [10]: > 100000 nM | GI50 [11]: 401 nM | GI50 [12]: 229 nM | growth at 10 µM [13]: -49% | growth at 10 µM [14]: -61.6% | GI50 [15]: 337 nM | CC50 [16]: > 100000 nM | growth at 10 µM [17]: -85.2% | GI50 [18]: 81 nM | growth at 10 µM [19]: -50.9% | GI50 [20]: 350 nM | GI50 [21]: 53 nM | growth at 10 µM [22]: -50% | growth at 10 µM [23]: -51% | GI50 [24]: 189 nM | growth at 10 µM [25]: -69.3% | growth at 10 µM [26]: -18.1% | growth at 10 µM [27]: -16.9% | GI50 [28]: 472 nM | CC50 [29]: > 100000 nM | GI50 [30]: 331 nM | GI50 [31]: 44 nM | GI50 [32]: 253 nM | GI50 [33]: 94 nM | GI50 [34]: 107 nM | CC50 [35]: > 100000 nM | CC50 [36]: > 100000 nM | CC50 [37]: > 100000 nM | CC50 [38]: > 100000 nM | CC50 [39]: > 100000 nM | CC50 [40]: > 100000 nM | growth at 10 µM [41]: 16.6% | GI50 [42]: 59 nM | GI50 [43]: 211 nM | GI50 [44]: 158 nM | GI50 [45]: 50 nM | GI50 [46]: 61 nM | GI50 [47]: 272 nM | CC50 [48]: > 100000 nM | GI50 [49]: 84 nM | GI50 [50]: 352 nM | GI50 [51]: 97 nM | CC50 [52]: > 100000 nM | GI50 [53]: 90 nM | CC50 [54]: > 100000 nM | growth at 10 µM [55]: -70.2% | growth at 10 µM [56]: -6.75% | CC50 [57]: > 100000 nM | GI50 [58]: 244 nM | growth at 10 µM [59]: -68.1% | GI50 [60]: 34 nM | growth at 10 µM [61]: -35.8% | growth at 10 µM [62]: -70.6% | growth at 10 µM [63]: -6.5% | CC50 [64]: > 100000 nM | growth at 10 µM [65]: 7.02% | CC50 [66]: > 100000 nM | CC50 [67]: > 100000 nM | GI50 [68]: 346 nM | growth at 10 µM [69]: -67.2% | GI50 [70]: 61 nM | CC50 [71]: > 100000 nM | CC50 [72]: > 100000 nM
